Several values for one entry are separate records, joined by “and”; a condition that tells them apart may be missing. Equal values may be shown once. Read-outs that look alike come from different tables or passages of the source.
What was measured:
[1] = target: TG2; parameters: method as in PMID 17149878; settings: cited from earlier work
[2] = test system: TG2; parameters: method as in PMID 24152195; settings: cited from earlier work
[3] = test system: activated FXIII; parameters: method as in PMID 27067043, PMID 27837727; settings: cited from earlier work
[4] = cited from earlier work; for Intact (%) / Non-polar (%) / Polar (%): rat plasma
[5] = test system: MDA-MB-231 tumour; assay: Dynamic PET imaging in orthotopic MDA-MB-231 tumour xenograft model; type: in vivo, SCID mice
Experimental: Severe combined immunodeficient (SCID) female mice (6–8 weeks, 20 to 25 g, Charles River, Wilmington, MA, USA) were housed in sterile cages under standard conditions (24 °C, 60% relative humidity, 12-h light/dark cycles) and provided with water and food ad libitum. MDA-MB-231 cells (1 × 10^6) were injected orthotopically in the fat pad of the second thoracic mammary glands (bilateral). Tumour dimensions were measured using a Vernier calliper, and tumour volume was calculated using the formula (x^2 y)/2 (x and y being the width and length, respectively) for an ellipsoid. At 8 weeks after MDA-MB-231 cell injection, tumours reached the target size of 200 mm^3. This study was performed according to national regulations and was approved by the Animal Experimentation Ethics Committee of the VU University Medical Center.
Dynamic PET imaging was performed using dedicated small animal NanoPET/CT and NanoPET/MR scanners (Mediso Ltd., Hungary, Budapest) with identical PET components. Mice (n = 4 per group) were anaesthetized with 4 and 2% isoflurane in 1 L · min^−1 oxygen for induction and maintenance, respectively. Mice were positioned on the scanner bed, and the respiratory rate was monitored for the duration of the scan, adjusting anaesthesia when required. A dynamic PET scan was acquired immediately after intravenous (i.v.) administration (tail vein) of 5 MBq [^11C]1 or [^18F]2. For blocking experiments, mice were injected subcutaneously with ERW1041E (50 mg · kg^−1) dissolved in 20% dimethylsulfoxide in 0.9% saline, 30 min prior to the tracer injection. An additional blocking experiment was performed by co-administration of compound 2 (50 μg, 75 nmol) and [^18F]2, which corresponded with a molar activity of 0.07 GBq · μmol^−1. PET scans were acquired in list mode and rebinned into the following frame sequence: 4 × 5, 4 × 10, 2 × 30, 3 × 60, 2 × 300, 1 × 600, 1 × 900 and 1 × 1200 s. In addition, a static [^18F]2-fluoro-2-deoxy-D-glucose ([^18F]FDG) scan was acquired for 30 min immediately after [^18F]FDG administration (10 MBq, tail vein). At least a 24-h time interval between [^18F]FDG scans and [^11C]1 or [^18F]2 scans was maintained. Reconstruction was performed with a fully 3-dimensional (3D) reconstruction algorithm using four iterations and six subsets, resulting in an isotropic 0.4-mm voxel dimension. Images were analysed using the freely available AMIDE-software version 1.0.4 (retrieved from https://sourceforge.net/projects/amide/files/amide/1.0.4). Regions of interest (ROIs) were drawn around the tumour tissue and leg muscle. Results are expressed as percentage injected dose per gram (%ID/g). Error bars indicate standard deviation. After PET scanning experiments, animals were sacrificed by cervical dislocation, tumours were isolated, and stored at − 80 °C until further use.

[6] = Plasma metabolite analysis after i.v. administration in SCID mice; type: in vivo; settings: mouse plasma
Experimental: Healthy female SCID mice (20–25 g, Harlan, Horst, The Netherlands) were injected in the tail vein with [^11C]1 or [^18F]2 (20 MBq) under isoflurane anaesthesia (2% in O2 at 1 L · min^−1). Mice were sacrificed at 15 and 45 min post injection (n = 3 for each time-point) by cervical dislocation. Blood (~ 0.5–1 mL) was withdrawn by heart puncture, collected in a heparin-coated tube and centrifuged at 5000 RPM to separate plasma from blood cells. Solid phase extraction (SPE) cartridges (tC18, Waters, Milford, MA, USA) were preconditioned by washing with methanol (MeOH, 6 mL) and H2O (two times 6 mL). Plasma (~ 0.2 mL) was mixed with 0.15 M HCl (0.2 mL) and loaded on the tC18 cartridge. The polar fraction was obtained by elution of the cartridge with H2O (3 mL), the non-polar fraction by subsequent elution with MeOH (1.5 mL) and H2O (0.5 mL). Both fractions were counted for radioactivity in a gamma counter. The percentage of intact tracer in the non-polar fraction was determined by online and offline HPLC analysis (Gemini C18 column (5 μm, 10 mm × 250 mm, Phenomenex, Torrance, CA, USA) with eluent MeCN (A) and 0.1% TFA acid in H2O (B) as eluent according to the following schemes; For [^11C]1: 0 min, 70% B at 0.25 mL · min^−1; 0.5 min, 70% B at 3.5 mL · min^−1; 9.0 min, 10% B at 3.5 mL · min^−1; 12.0 min, 10% B at 3.5 mL · min^−1; 12.5 min, 70% B at 3.5 mL · min^−1; 14.5 min, 70% B at 3.5 mL · min^−1 and 15 min, 70% B at 0.25 mL · min^−1 or for [^18F]2: 0 min, 80% B at 0.25 mL · min^−1; 0.5 min, 80% B at 3 mL · min^−1; 6.0 min, 30% B at 3 mL · min^−1; 12.0 min, 30% B at 3 mL · min^−1; 12.5 min, 80% B at 3.0 mL · min^−1; 14.5 min, 80% B at 3.0 mL · min^−1; 15.0 min, 80% B at 0.25 mL · min^−1 (Rt = 11.5 min). Offline HPLC analysis was performed when the online HPLC analysis yielded a low signal to noise ratio. For offline analysis, HPLC fractions (30 s per fraction) were collected and counted for radioactivity (WIZARD 2480 Compugamma, PerkinElmer, Waltham, MA, USA). The counting results were plotted to generate the corresponding HPLC chromatograms. Data were expressed as percentage of intact tracer, polar metabolites, and non-polar metabolites ± standard deviation.
To healthy SCID mice (n = 2) 10 MBq [^18F]2 diluted with 50 μg (2.5 mg · kg^−1) of unlabelled 2 was administered, corresponding to a molar activity of 0.14 GBq · μmol^−1. At 30 min post injection, animals were sacrificed under isoflurane anaesthesia (2% in O2 at 1 L · min^−1) by cervical dislocation. Blood (~ 1 mL) was collected by heart puncture. Blood plasma was separated using a SPE procedure as described in the “Metabolite analysis” section (vide supra). The non-polar fraction was analysed by HPLC and Liquid chromatography–tandem mass spectrometry (LC-MS/MS) in multiple reaction monitoring (MRM) mode. […]

[7] = test system: TG2; parameters: method as in PMID 27067043, PMID 27837727; settings: TG2 inhibition; cited from earlier work
[8] = test system: MDA-MB-231 tumour sections; parameters: method as in PMID 27067043, PMID 27837727; settings: cited from earlier work
[9] = 15 min after i.v., % of total blood plasma activity ± SD
[10] = animals sacrificed at 60 min post injection (listed under 45 min)

Structure (SMILES): O=C(NC[C@@H]1CC(Br)=NO1)[C@@H]1CCCN1C(=O)OCc1cnc2ccccc2c1 [ERW1041E, Quinolin-3-ylmethyl (S)-2-((((S)-3-bromo-4,5-dihydroisoxazol-5-yl)methyl)carbamoyl)pyrrolidine-1-carboxylate]
- Ki [1]: 11000 nM
- Inhibition of TG2 activity in mouse model of pulmonary hypertension ([2]; 50 mg/kg): inhibition of TG2 activity to background levels
- Reduction of TG2 activity in pulmonary hypertension model ([2]; 30 min after administration): factor of four
- Time of maximum TG2 inhibitory effect after administration [2]: 30 min

Structure (SMILES): C=C[11C](=O)NCCCC[C@H](NC(=O)Cc1ccccc1)C(=O)N1CCN(c2cccc(C)n2)CC1 [[^11C]1, (S)-N-(6-(4-(6-methylpyridin-2-yl)piperazin-1-yl)-6-oxo-5-(2-phenylacetamido)hexyl)[^11C]acrylamide]
- Affinity for activated FXIII [3]: no affinity
- Intact (%) ([4]; 15 min after i.v.): 65 ± 7%
- Non-polar (%) ([4]; 15 min after i.v.): 13 ± 4%
- Polar (%) ([4]; 15 min after i.v.): 21 ± 3%
- Intact (%) ([4]; 45 min after i.v.): 29 ± 11%
- Non-polar (%) ([4]; 45 min after i.v.): 6 ± 3%
- Polar (%) ([4]; 45 min after i.v.): 65 ± 12%
- Effect of ERW1041E pretreatment on tumour activity ([5]; ERW1041E 50 mg/kg s.c. 30 min prior to tracer): significant increase in tumour activity
- Time of peak tumour uptake after injection ([5]; baseline): 5 to 10 min
- Tumour uptake ([5]; baseline, 40–60 min p.i., 5 MBq i.v.): approx. 0.5 %ID/g
- Intact (%) [6, 9]: 56 ± 14%
- Intact (%) ([6]; 45 min after i.v.): 24% and 24 ± 1%
- IC50 [7]: 53 nM
- Binding to MDA-MB-231 tumour sections (in vitro autoradiography) [8]: specific and selective binding

Structure (SMILES): COC(=O)[C@H](CC(C)C)NC(=O)[C@@H]1CCCN1C(=O)[C@@H](NC(=O)[C@H](CCC(=O)C=[N+]=[N-])NC(=O)CO/N=C/c1ccc([18F])cc1)C(C)C [[^18F]2, (S)-methyl 2-((S)-1-((7S,10S,E)-7-(4-diazo-3-oxobutyl)-1-(4-[^18F]fluorophenyl)-10-isopropyl-5,8-dioxo-3-oxa-2,6,9-triazaundec-1-en-11-oyl)pyrrolidine-2-carboxamido)-4-methylpentanoate]
- Affinity for activated FXIII [3]: no affinity
- Metabolism in vivo ([4]; 15 min post injection): completely metabolised
- Intact (%) ([4]; 15 min after i.v.): 1 ± 1%
- Non-polar (%) ([4]; 15 min after i.v.): 98 ± 1%
- Polar (%) ([4]; 15 min after i.v.): 2 ± 0%
- Intact (%) [4, 10]: 0 ± 0 %
- Non-polar (%) [4, 10]: 92 ± 3 %
- Polar (%) [4, 10]: 8 ± 3 %
- Tumour activity after pretreatment with ERW1041E ([5]; ERW1041E 50 mg/kg s.c. 30 min prior to tracer, 40–60 min, p = 0.06 vs baseline): 1.4 %ID/g
- Background (muscle, right femur) activity ([5]; baseline, 40–60 min time-frame): 0.8 %ID/g
- Tumour activity with co-administered unlabelled 2 ([5]; self-blocking, 2 (50 μg, 75 nmol) co-administered, 40–60 min, p = 0.007): approximately 1.0 %ID/g
- Intact (%) [6, 9]: 20 ± 1%
- Intact (%) ([6]; 45 min after i.v.): 3 ± 2%
- IC50 [7]: 104 nM
- Binding to MDA-MB-231 tumour sections (in vitro autoradiography) [8]: specific and selective binding

Structure (SMILES): CC(C)C[C@H](NC(=O)[C@@H]1CCCN1C(=O)[C@@H](NC(=O)[C@H](CCC(=O)C=[N+]=[N-])NC(=O)CO/N=C/c1ccc([18F])cc1)C(C)C)C(=O)O [[^18F]M1]
- IC50 [7]: 45 nM

Reference: article PMC5970127, “In vivo evaluation of two tissue transglutaminase PET tracers in an orthotopic tumour xenograft model” (EJNMMI Research, 2018)
